“And” between values parts separate entries of the source, which are not always exact repeats. Identical values can stand only once. Numbers after ± are expanded uncertainties.
COC(F)(F)C(F)(F)F [methyl pentafluoroethyl ether]
Details | mass density [kg/m3]
330 K, 2009.1 kPa, Liquid | 1174.81 ± 0.9
330 K, 2033.5 kPa, Liquid | 1173.24 ± 0.9
330 K, 2499.3 kPa, Liquid | 1178.46 ± 0.94
330 K, 3014.1 kPa, Liquid | 1182.15 ± 0.98
330 K, 3040.4 kPa, Liquid | 1180.5 ± 0.98
330 K, 3527.6 kPa, Liquid | 1185.73 ± 1
330 K, 4007.5 kPa, Liquid | 1188.95 ± 1.1
330 K, 4054 kPa, Liquid | 1187.37 ± 1.1
330 K, 4522.8 kPa, Liquid | 1192.32 ± 1.1
330 K, 5044.3 kPa, Liquid | 1195.65 ± 1.2
330 K, 5095.2 kPa, Liquid | 1194.02 ± 1.2
330 K, 5526.8 kPa, Liquid | 1198.64 ± 1.2
330 K, 6004.2 kPa, Liquid | 1201.54 ± 1.2
330 K, 6121.5 kPa, Liquid | 1200.18 ± 1.2
330 K, 6544.9 kPa, Liquid | 1204.73 ± 1.3
330 K, 7006.4 kPa, Liquid | 1207.37 ± 1.3
330 K, 7184 kPa, Liquid | 1206.23 ± 1.4
340 K, 72.2 kPa, Gas | 3.93 ± 0.28
340 K, 97.1 kPa, Gas | 5.22 ± 0.29
340 K, 106 kPa, Gas | 5.76 ± 0.29
340 K, 154.8 kPa, Gas | 8.59 ± 0.3
340 K, 198.1 kPa, Gas | 11.09 ± 0.3
340 K, 224.8 kPa, Gas | 12.57 ± 0.31
340 K, 295.9 kPa, Gas | 17.05 ± 0.32
340 K, 323.2 kPa, Gas | 18.7 ± 0.32
340 K, 396.6 kPa, Gas | 23.61 ± 0.34
340 K, 495.8 kPa, Gas | 30.46 ± 0.36
340 K, 596 kPa, Gas | 38.08 ± 0.38
340 K, 597.2 kPa, Gas | 38.04 ± 0.38
340 K, 707 kPa, Liquid | 1124.67 ± 0.66
340 K, 722.8 kPa, Liquid | 1124.82 ± 0.66
340 K, 1026.7 kPa, Liquid | 1129.54 ± 0.69
340 K, 1053.7 kPa, Liquid | 1128.14 ± 0.69
340 K, 1524.7 kPa, Liquid | 1134.41 ± 0.73
340 K, 1999.2 kPa, Liquid | 1137.11 ± 0.76
340 K, 2020.3 kPa, Liquid | 1139.04 ± 0.77
340 K, 2516 kPa, Liquid | 1143.49 ± 0.81
340 K, 3002.4 kPa, Liquid | 1147.7 ± 0.85
340 K, 3017 kPa, Liquid | 1145.96 ± 0.84
340 K, 3529.7 kPa, Liquid | 1152.07 ± 0.89
340 K, 3993.9 kPa, Liquid | 1155.78 ± 0.92
340 K, 4072.4 kPa, Liquid | 1154.47 ± 0.92
340 K, 4525.8 kPa, Liquid | 1159.9 ± 0.97
340 K, 5046.6 kPa, Liquid | 1163.8 ± 1
340 K, 5093 kPa, Liquid | 1162.13 ± 1
340 K, 5487.3 kPa, Liquid | 1166.99 ± 1.1
340 K, 6030.7 kPa, Liquid | 1170.83 ± 1.1
340 K, 6115.2 kPa, Liquid | 1169.4 ± 1.1
340 K, 6527.2 kPa, Liquid | 1174.25 ± 1.1
340 K, 7001.9 kPa, Liquid | 1177.33 ± 1.2
340 K, 7160.8 kPa, Liquid | 1176.36 ± 1.2
350 K, 71.4 kPa, Gas | 3.8 ± 0.28
350 K, 104.7 kPa, Gas | 5.6 ± 0.29
350 K, 129.8 kPa, Gas | 6.86 ± 0.29
350 K, 152.8 kPa, Gas | 8.19 ± 0.3
350 K, 222 kPa, Gas | 12.14 ± 0.31
350 K, 275 kPa, Gas | 15.14 ± 0.31
350 K, 319.9 kPa, Gas | 17.93 ± 0.32
350 K, 395 kPa, Gas | 22.4 ± 0.33
350 K, 455.2 kPa, Gas | 26.4 ± 0.34
350 K, 560.7 kPa, Gas | 33.51 ± 0.36
350 K, 777.4 kPa, Gas | 50.08 ± 0.42
350 K, 799.2 kPa, Gas | 52.12 ± 0.43
350 K, 902.4 kPa, Liquid | 1084.92 ± 0.55
350 K, 933 kPa, Liquid | 1085.29 ± 0.56
350 K, 1008.2 kPa, Liquid | 1087.64 ± 0.56
350 K, 1049.9 kPa, Liquid | 1086.78 ± 0.56
350 K, 1470.3 kPa, Liquid | 1093.45 ± 0.59
350 K, 2013.5 kPa, Liquid | 1099.88 ± 0.63
350 K, 2056.5 kPa, Liquid | 1098.92 ± 0.62
350 K, 2517.3 kPa, Liquid | 1105.5 ± 0.66
350 K, 3024.3 kPa, Liquid | 1110.87 ± 0.7
350 K, 3061.7 kPa, Liquid | 1109.59 ± 0.69
350 K, 3474.5 kPa, Liquid | 1115.43 ± 0.73
350 K, 4005.1 kPa, Liquid | 1120.6 ± 0.77
350 K, 4100.2 kPa, Liquid | 1119.85 ± 0.77
350 K, 4481.5 kPa, Liquid | 1124.97 ± 0.81
350 K, 4979.5 kPa, Liquid | 1129.41 ± 0.85
350 K, 5116.8 kPa, Liquid | 1128.93 ± 0.85
350 K, 5469.1 kPa, Liquid | 1133.62 ± 0.89
350 K, 5973.9 kPa, Liquid | 1137.8 ± 0.93
350 K, 6125.5 kPa, Liquid | 1137.3 ± 0.94
350 K, 6531.4 kPa, Liquid | 1142.27 ± 0.98
350 K, 6996.6 kPa, Liquid | 1145.86 ± 1
350 K, 7196.9 kPa, Liquid | 1145.6 ± 1
360 K, 45.3 kPa, Gas | 2.31 ± 0.28
360 K, 98.2 kPa, Gas | 5.11 ± 0.29
360 K, 137.2 kPa, Gas | 7.1 ± 0.29
360 K, 200.1 kPa, Gas | 10.49 ± 0.3
360 K, 231.4 kPa, Gas | 12.2 ± 0.31
360 K, 289.8 kPa, Gas | 15.49 ± 0.32
360 K, 334.5 kPa, Gas | 18.07 ± 0.32
360 K, 415.3 kPa, Gas | 22.84 ± 0.34
360 K, 477.9 kPa, Gas | 26.77 ± 0.35
360 K, 586.1 kPa, Gas | 33.71 ± 0.37
360 K, 670.7 kPa, Gas | 39.54 ± 0.39
360 K, 807.9 kPa, Gas | 49.64 ± 0.42
360 K, 915.4 kPa, Gas | 58.53 ± 0.45
360 K, 990.4 kPa, Gas | 65.14 ± 0.48
360 K, 1139.7 kPa, Liquid | 1041.29 ± 0.44
360 K, 1228 kPa, Liquid | 1042.77 ± 0.44
360 K, 1529.8 kPa, Liquid | 1049.05 ± 0.46

mass density
Details | 330 K | 340 K | 350 K
Gas | – | 47.9 ± 0.21 kg/m3 | 61.38 ± 0.23 kg/m3
Liquid | 1161.46 ± 0.77 kg/m3 and 1163.08 ± 0.77 kg/m3 | 1124.55 ± 0.65 kg/m3 and 1126.1 ± 0.65 kg/m3 and 1126.12 ± 0.65 kg/m3 | 1084.74 ± 0.54 kg/m3 and 1086.06 ± 0.55 kg/m3

Reference: the NIST ThermoML archive (doi:10.1021/je025657+)
